Test results reported in patent US20220313819A1, “COMBINATION THERAPY FOR THE TREATMENT OF SOLID AND HEMATOLOGICAL CANCERS” (Arch Oncology, Inc., priority 2019, published 2022).

Columns and labels:
MM.1S tumors [1] = test: MM.1S multiple myeloma xenograft, combination with bortezomib; type: in vivo, mouse
From the text: (§1) MM.1S human multiple myeloma cells (ATCC #CRL-2974, Manassas, Va.) were maintained in RPMI-1640 (Lonza; Walkersville, Md.) supplemented with 10% Fetal Bovine Serum (FBS; Omega Scientific; Tarzana, Calif.) and 1% Penicillin/Streptomycin (Corning, Manassas, Va.) within a 5% CO2 atmosphere. Cultures were expanded in tissue culture flasks.
(§2) Female NSG (NOD-Cg-Prkdc^scidI12rg^tm1Wjl/SzJ) were obtained from Jackson Laboratory (Bar Harbor, Me.) at 5-6 weeks of age. Mice were acclimated prior to handling and housed in microisolator cages (Lab Products, Seaford, Del.) under specific pathogen-free conditions. Mice were fed Teklad Global Diet® 2920x irradiated laboratory animal diet (Envigo, Formerly Harlan; Indianapolis, Ind.) and provided autoclaved water ad libitum. All procedures were carried out under Institutional Animal Care and Use guidelines.
(§3) The mean TS of each group was calculated and reported.
All statistical analyses in the xenograft study were performed with Prism GraphPad® software.

RPMI-8226 tumors = test: RPMI-8226 multiple myeloma xenograft in NSG mice; type: in vivo, mouse
From the text: as §1, with “RPMI-8226” for “MM.1S”, “#CCL-155,” for “#CRL-2974,”
as §2
Female NSG mice were inoculated subcutaneously in the right flank with 0.1 mL of a 30% RPMI/70% Matrigel™ (BD Biosciences; Bedford, Mass.) mixture containing a suspension of 1×10^7 RPMI-8226 tumor cells.
as §3
Differences in Day 48 tumor volumes were confirmed using a one-way ANOVA, unpaired, parametric with the Tukey's Multiple Comparison test with Welch's correction. […]

SNU-1 tumors = test: SNU-1 gastric carcinoma xenograft in NSG mice; type: in vivo, mouse; details: antibody 25 mg/kg IP Q7D×5, cisplatin 3 mg/kg Q7D×4
Experimental: Female NSG mice (NOD-Cg-PrkdcscidI12rgtm1Wjl/SzJ, Jackson Laboratories) were inoculated subcutaneously in the right flank with 0.1 mL of a 30% RPMI/70% Matrigel™ (BD Biosciences; Bedford, Mass.) mixture containing a suspension of 5×10^6 SNU-1 gastric carcinoma cells (ATCC). Eight days following inoculation, digital calipers were used to measure width and length diameters of the tumor. Tumor volumes were calculated utilizing the formula: tumor volume (mm^3)=(a×b^2/2) where ‘b’ is the smallest diameter and ‘a’ is the largest diameter. Mice with palpable tumor volumes of 50-100 mm^3 were randomized into 10 mice/group and administered anti-CD47 mAb VLX9hum_06 IgG2, cisplatin, control IgG2, or a combination of anti-CD47 mAb VLX9hum_06 IgG2 with cisplatin. Mice were treated with 25 mg/kg of antibody once a week for 5 weeks (Q7D×5) by intraperitoneal injection (IP) and/or with 3 mg/kg of cisplatin once weekly for 4 weeks (Q7D×4). Tumor volumes and body weights were recorded twice weekly.
Mean tumor growth inhibition (TGI) was calculated utilizing the following formula.
Significant differences in tumor volume were confirmed using a two-way ANOVA, unpaired, parametric with the Tukey's Multiple Comparison test.

OV90 tumors = test: OV90 ovarian carcinoma xenograft in NSG mice; type: in vivo, mouse; details: OV90, Day 52; antibody 10 mg/kg IP QD5×6, cisplatin 5 mg/kg, paclitaxel 20 mg/kg
Experimental: Female NSG mice (NOD-Cg-PrkdcscidI12rgtm1Wjl/SzJ, Jackson Laboratories) were inoculated subcutaneously in the right flank with 0.1 mL of a 30% RPMI/70% Matrigel™ (BD Biosciences; Bedford, Mass.) mixture containing a suspension of 5×10^6 OV90 ovarian carcinoma cells (ATCC). Digital calipers were used to measure width and length diameters of the tumor. Tumor volumes were calculated utilizing the formula: tumor volume (mm^3)=(a×b^2/2) where ‘b’ is the smallest diameter and ‘a’ is the largest diameter. Mice with palpable tumor volumes of 50-100 mm^3 were randomized into 10 mice/group. […] Tumor volumes and body weights were recorded twice weekly.

MM.1S tumors [2] = test: MM.1S xenograft in NOD-SCID mice, combination with lenalidomide or pomalidomide; type: in vivo, mouse; details: for complete tumor regression: N=9/group; for tumor growth inhibition (TGI): mAb 25 mg/kg IP weekly
From the text: MM.1S human multiple myeloma cells (ATCC #CRL-2974, Manassas, Va.) were maintained in RPMI-1640 (Lonza; Walkersville, Md.) supplemented with 10% Fetal Bovine Serum (FBS; Omega Scientific; Tarzana, Calif.) and 1% Penicillin/Streptomycin (Corning, Manassas, Va.) within a 5% CO2 atmosphere. Cultures were expanded in tissue culture flasks. Female NOD-SCID (NOD.CB17-Prkdc^scid/J) mice were obtained from Jackson Laboratory (Bar Harbor, Me.) at 5-6 weeks of age. Mice were acclimated prior to handling and housed in microisolator cages (Lab Products, Seaford, Del.) under specific pathogen-free conditions. Mice were fed Teklad Global Diet® 2920x irradiated laboratory animal diet (Envigo, Formerly Harlan; Indianapolis, Ind.) and provided autoclaved water ad libitum. All procedures were carried out under Institutional Animal Care and Use guidelines.
Female NOD-SCID mice were inoculated subcutaneously in the right flank with 0.1 mL of a 50% RPMI-1640/50% Matrigel™ (BD Biosciences; Bedford, Mass.) mixture containing a suspension of 5×10^6 MM.1S tumor cells. When tumors reached volumes of approximately 50-100 mm^3, mice were randomized. The test articles, human IgG2 (hIgG2), anti-CD47 mAb (VLX9hum_06 IgG2) were administered by intraperitoneal (IP) injection and lenalidomide or pomalidomide (LC Labs, Woburn, Mass.) were administered by oral gavage (PO). hIgG2 (25 mg/kg) or an anti-CD47 mAb VLX9hum_06 IgG2 (25 mg/kg) were administered weekly for 5 weeks, while lenalidomide (25 mg/kg) or pomalidomide (10 mg/kg) were administered on 4 successive days, with 3 days off, weekly for 5 weeks.
Mean tumor growth inhibition (TGI) was calculated at Day 24 (the final day all mice were on study) utilizing the following formula.
All statistical analyses in the xenograft study were performed with Prism GraphPad® software. Differences in Day 24 tumor volumes were confirmed using a two-way ANOVA, unpaired, parametric with the Tukey's Multiple Comparison test with Welch's correction.

Jurkat T ALL cell line = test: ATP release; type: cell-based, human; details: mAb 10 μg/ml or mitoxantrone 1 μM, 24 hours
Experimental: Release of ATP from the tumor cell is determined by quantitative bioluminescence assay as described by the manufacturer (Molecular Probes; Catalogue #A22066).
The humanized antibodies (VLX4hum_01 IgG4PE, VLX4hum_07 IgG4PE, VLX8hum_11 IgG4PE, VLX9hum_06 IgG2, VLX9hum_08 IgG2 and VLX9hum_03) as disclosed herein, purified from transient transfections in CHO cells as described above, as well as the control chimeric antibody, were added at a final concentration of 10 μg/ml. As a positive control for ATP release, cells were treated with 1 μM of chemotherapeutic anthracycline mitoxantrone. The cells were incubated at 37° C. for 24 hours, after which the cell-free supernatant was collected and stored at −80° C. After all samples have been collected, 10 μl of each sample was tested by the ATP determination kit as described above. […] Results are presented as means SEM and analyzed for statistical significance using ANOVA in GraphPad Prism 6.

MM.1S tumors [3] = test: MM.1S multiple myeloma xenograft, combination with daratumumab; type: in vivo, mouse
Experimental: as §1, with “The anti-tumor properties of a humanized anti-CD47 antibody (VLX9hum_06 IgG2) and in combination with anti-CD38 monoclonal antibody daratumumab which reduce tumor burden in a xenograft MM.1S multiple myeloma NSG mouse model were evaluated MM.1S” for “MM.1S”
as §2
Female NSG mice were inoculated subcutaneously in the right flank with 0.1 mL of a 30% RPMI/70% Matrigel™ (BD Biosciences; Bedford, Mass.) mixture containing a suspension of 5×10^6 MM.1S tumor cells. […]
Mean tumor growth inhibition (TGI) was calculated at Day 20 utilizing the following formula. […]

CC(C)C[C@H](NC(=O)[C@H](Cc1ccccc1)NC(=O)c1cnccn1)B(O)O [bortezomib]
median survival (MM.1S tumors [1]): 35 days
tumor growth inhibition (TGI) (MM.1S tumors [1]; Day 20, mAb 25 mg/kg IP weekly, bortezomib 0.75 then 0.5 mg/kg IV): 91.8%
median survival (RPMI-8226 tumors; RPMI-8226, 1 mg/kg): 78 days
tumor growth inhibition (TGI) (RPMI-8226 tumors; RPMI-8226, Day 48, 1 mg/kg IV Day 1, 4, 12): 96%

N.N.[Cl][Pt][Cl] [cisplatin]
tumor growth inhibition (TGI) (SNU-1 tumors): 39.7%
tumor growth inhibition (TGI) (OV90 tumors): 53.1%

Nc1cccc2c1CN(C1CCC(=O)NC1=O)C2=O (centres unmarked) [lenalidomide]
complete tumor regression (MM.1S tumors [2]; FIG. 91A): no tumor regressions
tumor growth inhibition (TGI) (MM.1S tumors [2]; day 24, FIG. 91A, lenalidomide 25 mg/kg PO): 48%

O=C1c2c(O)ccc(O)c2C(=O)c2c(NCCNCCO)ccc(NCCNCCO)c21 [mitoxantrone]
amount of released ATP (Jurkat T ALL cell line): did not (ns)

CC(=O)O[C@H]1C(=O)[C@@]2(C)[C@H]([C@H](OC(=O)c3ccccc3)[C@]3(O)C[C@H](OC(=O)[C@H](O)[C@@H](NC(=O)c4ccccc4)c4ccccc4)C(C)=C1C3(C)C)[C@]1(OC(C)=O)CO[C@@H]1C[C@@H]2O [paclitaxel]
tumor growth inhibition (TGI) (OV90 tumors): 32.1%

Nc1cccc2c1C(=O)N(C1CCC(=O)NC1=O)C2=O (centres unmarked) [pomalidomide]
complete tumor regression (MM.1S tumors [2]; FIG. 91B): no tumor regressions
tumor growth inhibition (TGI) (MM.1S tumors [2]; day 24, FIG. 91B, pomalidomide 10 mg/kg PO): 23%

daratumumab: anti-CD38 monoclonal antibody
median survival (MM.1S tumors [3]): 29 days
tumor growth inhibition (TGI) (MM.1S tumors [3]; Day 20, mAb 25 mg/kg weekly, daratumumab 15 mg/kg twice weekly): 54%
